According to patent US11325889B2, “Substituted 3-((3-aminophenyl)amino)piperidine-2,6-dione compounds, compositions thereof, and methods of treatment therewith” (Celgene Corporation, priority 2018, dated 2022):

Biological target: T1, AR protein in VCaP cells (Homo sapiens, UniProt P10275)
T1 construct: endogenous in cells; host or cells: VCaP cells
T1 sequence (P10275 1-920): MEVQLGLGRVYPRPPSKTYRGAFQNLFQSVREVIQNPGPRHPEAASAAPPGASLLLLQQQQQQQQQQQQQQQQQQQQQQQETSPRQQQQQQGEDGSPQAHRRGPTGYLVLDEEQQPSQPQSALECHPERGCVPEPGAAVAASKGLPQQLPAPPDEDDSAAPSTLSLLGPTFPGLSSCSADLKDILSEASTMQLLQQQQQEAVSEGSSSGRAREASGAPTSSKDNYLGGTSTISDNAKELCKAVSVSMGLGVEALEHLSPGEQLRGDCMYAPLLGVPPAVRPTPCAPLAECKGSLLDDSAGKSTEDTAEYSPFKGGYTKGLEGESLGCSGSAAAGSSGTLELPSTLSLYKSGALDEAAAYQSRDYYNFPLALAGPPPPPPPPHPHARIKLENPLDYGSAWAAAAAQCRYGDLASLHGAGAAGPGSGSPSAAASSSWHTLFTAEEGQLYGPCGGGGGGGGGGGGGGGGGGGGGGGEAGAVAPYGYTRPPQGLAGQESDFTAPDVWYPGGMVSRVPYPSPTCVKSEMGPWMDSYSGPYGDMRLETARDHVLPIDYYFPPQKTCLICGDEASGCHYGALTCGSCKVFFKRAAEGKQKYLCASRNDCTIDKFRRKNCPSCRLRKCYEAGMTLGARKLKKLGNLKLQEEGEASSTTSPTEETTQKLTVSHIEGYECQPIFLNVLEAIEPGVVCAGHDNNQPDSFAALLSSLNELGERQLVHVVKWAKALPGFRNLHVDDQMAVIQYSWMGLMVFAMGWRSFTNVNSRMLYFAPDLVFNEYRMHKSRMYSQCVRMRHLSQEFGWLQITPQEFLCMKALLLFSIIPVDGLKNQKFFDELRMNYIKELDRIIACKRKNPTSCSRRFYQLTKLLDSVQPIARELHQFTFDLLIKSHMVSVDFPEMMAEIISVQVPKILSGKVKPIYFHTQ
Assay: VCAP AR Degradation Assay (AR ELISA, 24 h)
Assay type: cell-based
Conditions: for Y (lowest measured AR level normalized to DMSO control): AR degradation efficiency; for DC50: concentration of compound when AR level = 50% of DMSO control, read-out: DC50
Procedure: VCAP AR Degradation Assay.
Test compounds were pre-dispensed into a Corning CellBind 96-well clear bottom plate (Cat #3300) using an acoustic dispenser to make a 10-point concentration series at 1:3 dilution for each compound. The final top concentration of each compound was […]. DMSO at a final concentration of 0.1% was used as a control. VCaP cells cultured in DMEM with 8% fetal bovine serum (FBS) were seeded at 50K cells per well in a 200 μL volume into the compound plate and incubated at 37° C. in a CO2 incubator for 24 h. The medium was carefully removed from the cells and the plate was placed on ice. One hundred […] of ice-cold 1× cell lysis buffer from Cell Signaling Technologies (Cat #9803) was added to each well of the cells and the plate was incubated at 4° C. on a shaker for 1 h. Fifteen […] of cell lysate was used for AR ELISA detection using a PathScan Total Sandwich AR ELISA kit (Cell Signaling Technology, Cat #12580). AR levels in compound-treated wells were normalized to that of DMSO control and expressed as percent of control (PoC) (y). A Four Parameter Logistic Model (Sigmoidal Dose-Response Model) was used to determine the compound's DC50, and EC50, using the following equation: y=(A+((B−A)/(1+((C/x)^D)))) • A=YMin (lowest AR level normalized to DMSO control in response to compound • treatment, as determined by curve fit) • B=YMax (maximum AR level as determined by curve fit) • C=EC50 • D=Hill Slope • x=compound concentration • EC50=the concentration of compound when y=(YMax−YMin)/2 • DC50=the concentration of the compound when y=50% of DMSO control (50% AR degradation) • y=AR protein level normalized to DMSO control
The lowest measured AR level normalized to DMSO control in response to compound treatment, termed Y value, was used to characterize the compound-mediated AR degradation efficiency.

Row | Y (lowest measured AR level normalized to DMSO control) | DC50 [nM] | Compound
1 | * (0<Y<=25%) | < 100 | CCc1cc(N2C(=S)N(c3cnc(C#N)c(C(F)(F)F)c3)C(=O)C2(C)C)ccc1OCCC1CCN(CC(=O)Nc2cc(Cl)cc(NC3CCC(=O)NC3=O)c2)CC1 (centres unmarked) [Cmpd 13, N-(3-chloro-5-(2,6-dioxopiperidin-3-ylamino)phenyl)-2-(4-(2-(4-(3-(6-cyano-5-(trifluoromethyl)pyridin-3-yl)-5,5-dimethyl-4-oxo-2-thioxoimidazolidin-1-yl)-2-ethylphenoxy)ethyl)piperidin-1-yl)acetamide]
2 | * (0<Y<=25%) | 100 to 500 | CCc1cc(N2C(=S)N(c3cnc(C#N)c(C(F)(F)F)c3)C(=O)C2(C)C)ccc1OCCC1CCN(CC(=O)Nc2cc(NC3CCC(=O)NC3=O)ccc2Cl)CC1 (centres unmarked) [Cmpd 14, N-(2-chloro-5-(2,6-dioxopiperidin-3-ylamino)phenyl)-2-(4-(2-(4-(3-(6-cyano-5-(trifluoromethyl)pyridin-3-yl)-5,5-dimethyl-4-oxo-2-thioxoimidazolidin-1-yl)-2-ethylphenoxy)ethyl)piperidin-1-yl)acetamide]
3 | * (0<Y<=25%) | < 100 | CCc1cc(N2C(=S)N(c3cnc(C#N)c(C(F)(F)F)c3)C(=O)C2(C)C)ccc1OCCC1CCN(CC(=O)Nc2cc(NC3CCC(=O)NC3=O)ccc2F)CC1 (centres unmarked) [Cmpd 15, 2-(4-(2-(4-(3-(6-cyano-5-(trifluoromethyl)pyridin-3-yl)-5,5-dimethyl-4-oxo-2-thioxoimidazolidin-1-yl)-2-ethylphenoxy)ethyl)piperidin-1-yl)-N-(5-(2,6-dioxopiperidin-3-ylamino)-2-fluorophenyl)acetamide]
4 | * (0<Y<=25%) | < 100 | CC(F)(F)c1cc(N2C(=S)N(c3cnc(C#N)c(C(F)(F)F)c3)C(=O)C2(C)C)ccc1OCCC1CCN(CC(=O)Nc2cc(F)cc(NC3CCC(=O)NC3=O)c2)CC1 (centres unmarked) [Cmpd 22, 2-(4-(2-(4-(3-(6-cyano-5-(trifluoromethyl)pyridin-3-yl)-5,5-dimethyl-4-oxo-2-thioxoimidazolidin-1-yl)-2-(1,1-difluoroethyl)phenoxy)ethyl)piperidin-1-yl)-N-(3-(2,6-dioxopiperidin-3-ylamino)-5-fluorophenyl)acetamide]
5 | * (0<Y<=25%) | < 100 | CCc1cc(N2C(=S)N(c3cnc(C#N)c(C(F)(F)F)c3)C(=O)C2(C)C)ccc1OCCC1CCN([C@@H](C)C(=O)Nc2cc(Cl)cc(NC3CCC(=O)NC3=O)c2)CC1 (stereo partly drawn) [Cmpd 23, (2S)-N-(3-chloro-5-(2,6-dioxopiperidin-3-ylamino)phenyl)-2-(4-(2-(4-(3-(6-cyano-5-(trifluoromethyl)pyridin-3-yl)-5,5-dimethyl-4-oxo-2-thioxoimidazolidin-1-yl)-2-ethylphenoxy)ethyl)piperidin-1-yl)propanamide]
6 | * (0<Y<=25%) | 100 to 500 | CC(F)(F)c1cc(N2C(=S)N(c3cnc(C#N)c(C(F)(F)F)c3)C(=O)C2(C)C)ccc1OCCC1CCN(CC(=O)Nc2cc(Cl)cc(NC3CCC(=O)NC3=O)c2)CC1 (centres unmarked) [Cmpd 24, N-(3-chloro-5-(2,6-dioxopiperidin-3-ylamino)phenyl)-2-(4-(2-(4-(3-(6-cyano-5-(trifluoromethyl)pyridin-3-yl)-5,5-dimethyl-4-oxo-2-thioxoimidazolidin-1-yl)-2-(1,1-difluoroethyl)phenoxy)ethyl)piperidin-1-yl)acetamide]
7 | * (0<Y<=25%) | < 100 | CCc1cc(N2C(=S)N(c3cnc(C#N)c(C(F)(F)F)c3)C(=O)C2(C)C)ccc1OCCC1CCN([C@H](C)C(=O)Nc2cc(Cl)cc(NC3CCC(=O)NC3=O)c2)CC1 (stereo partly drawn) [Cmpd 25, (2R)-N-(3-chloro-5-(2,6-dioxopiperidin-3-ylamino)phenyl)-2-(4-(2-(4-(3-(6-cyano-5-(trifluoromethyl)pyridin-3-yl)-5,5-dimethyl-4-oxo-2-thioxoimidazolidin-1-yl)-2-ethylphenoxy)ethyl)piperidin-1-yl)propanamide]

Row | Compound | Y (lowest measured AR level normalized to DMSO control) | DC50 [nM]
8 | CCc1cc(N2C(=S)N(c3cnc(C#N)c(C(F)(F)F)c3)C(=O)C2(C)C)ccc1OCCC1CCN(CC(=O)Nc2cc(F)cc(NC3CCC(=O)NC3=O)c2)CC1 (centres unmarked) [Cmpd 16, 2-(4-(2-(4-(3-(6-cyano-5-(trifluoromethyl)pyridin-3-yl)-5,5-dimethyl-4-oxo-2-thioxoimidazolidin-1-yl)-2-ethylphenoxy)ethyl)piperidin-1-yl)-N-(3-(2,6-dioxopiperidin-3-ylamino)-5-fluorophenyl)acetamide] | * (0<Y<=25%) | < 100
9 | CCc1cc(N2C(=S)N(c3ccc(C#N)c(C(F)(F)F)c3)C(=O)C2(C)C)ccc1OCCC1CCN(CC(=O)Nc2cccc(NC3CCC(=O)NC3=O)c2)CC1 (centres unmarked) [Cmpd 17, 2-(4-(2-(4-(3-(4-cyano-3-(trifluoromethyl)phenyl)-5,5-dimethyl-4-oxo-2-thioxoimidazolidin-1-yl)-2-ethylphenoxy)ethyl)piperidin-1-yl)-N-(3-(2,6-dioxopiperidin-3-ylamino)phenyl)acetamide] | * (0<Y<=25%) | < 100
10 | CCc1cc(N2C(=S)N(c3ccc(C#N)c(C(F)(F)F)c3)C(=O)C2(C)C)ccc1OCCC1CCN(CC(=O)Nc2cc(NC3CCC(=O)NC3=O)ccc2F)CC1 (centres unmarked) [Cmpd 18, 2-(4-(2-(4-(3-(4-cyano-3-(trifluoromethyl)phenyl)-5,5-dimethyl-4-oxo-2-thioxoimidazolidin-1-yl)-2-ethylphenoxy)ethyl)piperidin-1-yl)-N-(5-(2,6-dioxopiperidin-3-ylamino)-2-fluorophenyl)acetamide] | * (0<Y<=25%) | 100 to 500
11 | CCc1cc(N2C(=S)N(c3ccc(C#N)c(C(F)(F)F)c3)C(=O)C2(C)C)ccc1OCCC1CCN(CC(=O)Nc2cc(F)cc(NC3CCC(=O)NC3=O)c2)CC1 (centres unmarked) [Cmpd 19, 2-(4-(2-(4-(3-(4-cyano-3-(trifluoromethyl)phenyl)-5,5-dimethyl-4-oxo-2-thioxoimidazolidin-1-yl)-2-ethylphenoxy)ethyl)piperidin-1-yl)-N-(3-(2,6-dioxopiperidin-3-ylamino)-5-fluorophenyl)acetamide] | * (0<Y<=25%) | 100 to 500
12 | CCc1cc(N2C(=S)N(c3ccc(C#N)c(C(F)(F)F)c3)C(=O)C2(C)C)ccc1OCCC1CCN(CC(=O)Nc2cc(Cl)cc(NC3CCC(=O)NC3=O)c2)CC1 (centres unmarked) [Cmpd 20, N-(3-chloro-5-(2,6-dioxopiperidin-3-ylamino)phenyl)-2-(4-(2-(4-(3-(4-cyano-3-(trifluoromethyl)phenyl)-5,5-dimethyl-4-oxo-2-thioxoimidazolidin-1-yl)-2-ethylphenoxy)ethyl)piperidin-1-yl)acetamide] | * (0<Y<=25%) | < 100
13 | CCc1cc(N2C(=S)N(c3ccc(C#N)c(C(F)(F)F)c3)C(=O)C2(C)C)ccc1OCCC1CCN([C@H](C)C(=O)Nc2cc(Cl)cc(NC3CCC(=O)NC3=O)c2)CC1 (stereo partly drawn) [Cmpd 21, (2R)-N-(3-chloro-5-(2,6-dioxopiperidin-3-ylamino)phenyl)-2-(4-(2-(4-(3-(4-cyano-3-(trifluoromethyl)phenyl)-5,5-dimethyl-4-oxo-2-thioxoimidazolidin-1-yl)-2-ethylphenoxy)ethyl)piperidin-1-yl)propanamide] | * (0<Y<=25%) | 100 to 500
